Test systems include 786-0 renal; HL-60(TB) leukemia; NCI-H522 lung; OVCAR-3 ovarian; SF-539 CNS; SN12C renal; SW-620 colon; UACC-62 melanoma; RXF 393 renal; LOX IMVI melanoma.
What all share (assay): NCI-60 cell line screen, 48 h

Values joined by “and” are separate entries in the source; they are usually repeats but may differ in a detail not shown here. Equal values may be shown once.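 Protocol summary: plate cells (96-well), add compound at 5 concentrations, incubate 48 h, interpolate endpoints linearly. GI50 is the concentration that inhibits growth by half. At the TGI there is no net growth.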

On to `Cc1cc(Cl)ccc1NC(=O)CCCC(=O)C1C/C(=N/O)CC/C1=N\O` (stereo not given), for which the TGI in the experiment on 786-0 renal, in the experiment with HL-60(TB) leukemia, in the experiment with NCI-H522 lung, with OVCAR-3 ovarian, in the experiment on SF-539 CNS and in the experiment with SN12C renal was more than 100 µM throughout. For the same compound, the TGI in the experiment on SW-620 colon and with UACC-62 melanoma was more than 100 µM in each case.

For `C/C(=N/NC(=S)Nc1ccccc1)c1nc2ccc(Cl)cc2[nH]1`, the GI50 in the experiment with 786-0 renal was 0.0918 µM; in the experiment with HL-60(TB) leukemia, 0.101 µM; in the experiment with NCI-H522 lung, 0.194 µM; in the experiment with OVCAR-3 ovarian it was 0.0777 µM; with RXF 393 renal it was 0.165 µM; with SF-539 CNS, 0.129 µM. The GI50 is 0.208 µM with SW-620 colon and 0.126 µM in the experiment with UACC-62 melanoma. The TGI stood at 0.368 µM in the experiment with 786-0 renal; 0.503 µM with HL-60(TB) leukemia; 0.821 µM in the experiment on NCI-H522 lung; 1.26 µM with OVCAR-3 ovarian; 0.783 µM in the experiment on RXF 393 renal; 0.686 µM in the experiment on SF-539 CNS. For the same compound, the TGI is 0.99 µM in the experiment with SW-620 colon and 0.425 µM in the experiment with UACC-62 melanoma.

Turning to `COc1ccc(-c2ccc(C3CC(c4ccccc4)=NN3)o2)c([N+](=O)[O-])c1` (stereo not given), the GI50 in the experiment with 786-0 renal was 60.6 µM; with HL-60(TB) leukemia it was 24.9 µM; in the experiment on NCI-H522 lung, 58.4 µM; in the experiment on OVCAR-3 ovarian it was 29.8 µM; with RXF 393 renal, 40 µM; in the experiment on SF-539 CNS it was 64.7 µM. For the same compound, the GI50 with SN12C renal is 56.4 µM; with SW-620 colon it was 47.5 µM; in the experiment with UACC-62 melanoma it was 67.7 µM. The TGI in the experiment on 786-0 renal is more than 100 µM; with HL-60(TB) leukemia it was 64.8 µM; in the experiment on NCI-H522 lung, more than 100 µM; in the experiment with OVCAR-3 ovarian, more than 100 µM; with RXF 393 renal it was more than 100 µM; with SF-539 CNS, more than 100 µM. The TGI in the experiment on SN12C renal, with SW-620 colon and in the experiment with UACC-62 melanoma was more than 100 µM in each case.

As to `N=C1CCCC1C(=S)SCCC(N)=O` (stereo not given), the TGI in the experiment with 786-0 renal, with HL-60(TB) leukemia, in the experiment with NCI-H522 lung, with OVCAR-3 ovarian, in the experiment on RXF 393 renal and with SF-539 CNS was more than 100 µM throughout. The TGI in the experiment on SN12C renal, in the experiment with SW-620 colon and in the experiment on UACC-62 melanoma was more than 100 µM throughout.

In the case of `O=C1CC23CCCCCCCCCCC2(C1)CC(=O)C3` (stereo not given), the TGI with 786-0 renal is more than 100 µM; in the experiment with HL-60(TB) leukemia, 39.2 µM; in the experiment on NCI-H522 lung, 45 µM; with OVCAR-3 ovarian, 41.5 µM; in the experiment with RXF 393 renal, 89.2 µM; in the experiment with SF-539 CNS, more than 100 µM. Besides, the TGI in the experiment with SN12C renal is 38.6 µM; with SW-620 colon it was more than 100 µM.

`COc1ccc(-c2ccc(CC(=O)O)cc2)cc1OC`: the TGI with 786-0 renal, with HL-60(TB) leukemia, in the experiment on NCI-H522 lung, with OVCAR-3 ovarian, in the experiment on SN12C renal and with SW-620 colon was more than 100 µM throughout. The compound further registered a TGI with UACC-62 melanoma of more than 100 µM.

For the compound `COc1cc2c(cc1OCCNC(=O)/C=C1\C[C@H]3C=Nc4cc(OCc5ccccc5)c(OC)cc4C(=O)N3C1)N=C[C@@H]1CCCN1C2=O`, the GI50 in the experiment on 786-0 renal is 3.68 µM; in the experiment with LOX IMVI melanoma, 2.75 µM; in the experiment on NCI-H522 lung, 1.62 µM; in the experiment on OVCAR-3 ovarian, 2.19 µM; with RXF 393 renal, 1.98 µM; with SN12C renal it was 2.68 µM. The GI50 was 5.36 µM with SW-620 colon and 2.65 µM in the experiment with UACC-62 melanoma. Besides, the TGI turned out to be 16.8 µM with 786-0 renal; 7.31 µM in the experiment with LOX IMVI melanoma; 3.88 µM with NCI-H522 lung; 5.49 µM in the experiment on OVCAR-3 ovarian; 4.98 µM in the experiment with RXF 393 renal; 15.8 µM with SN12C renal. In addition, the values for the TGI in the experiment on SW-620 colon and in the experiment on UACC-62 melanoma were 24.7 µM and 9.92 µM, respectively.

For `COc1cc2c(cc1C)NC(=O)/C2=C/c1ccnc2ccccc12`, the GI50 in the experiment with 786-0 renal was 35.3 µM; in the experiment on HL-60(TB) leukemia it was 30.7 µM; in the experiment on NCI-H522 lung, 8.35 µM; in the experiment on OVCAR-3 ovarian, 18.4 µM; in the experiment with SF-539 CNS, 20.8 µM; in the experiment with SN12C renal it was 12.6 µM. Besides, the GI50 in the experiment with SW-620 colon is more than 50 µM; with UACC-62 melanoma, 13.1 µM. Also, the TGI in the experiment with 786-0 renal is more than 50 µM; in the experiment on HL-60(TB) leukemia, more than 50 µM; in the experiment on NCI-H522 lung, 41.7 µM; in the experiment on OVCAR-3 ovarian, more than 50 µM; in the experiment with SF-539 CNS, more than 50 µM; with SN12C renal, more than 50 µM. The TGI in the experiment with SW-620 colon and with UACC-62 melanoma was more than 50 µM in each case.

On to `COc1cc(C)c2c(c1)CN1CN2Cc2cc(OC)cc(C)c21`, for which the TGI in the experiment with 786-0 renal is more than 100 µM; in the experiment on HL-60(TB) leukemia, 64.2 µM; in the experiment with LOX IMVI melanoma, more than 100 µM; in the experiment with NCI-H522 lung, more than 100 µM; in the experiment on OVCAR-3 ovarian, 54.2 µM; in the experiment with SF-539 CNS it was more than 100 µM. The figures for the TGI in the experiment with SN12C renal, in the experiment with SW-620 colon and with UACC-62 melanoma were more than 100 µM, more than 100 µM and 79 µM, respectively.

Turning to `CC(C)(C)C#COC(=O)c1ccccc1`, the TGI with 786-0 renal, in the experiment on HL-60(TB) leukemia, with LOX IMVI melanoma, in the experiment with NCI-H522 lung, in the experiment on OVCAR-3 ovarian and in the experiment with SF-539 CNS was more than 100 µM throughout. For the same compound, the TGI in the experiment with SN12C renal, with SW-620 colon and in the experiment on UACC-62 melanoma was more than 100 µM throughout.

As for `CC(C)Cc1cnc(CC(C)C)c(=O)[nH]1`, the TGI in the experiment on 786-0 renal, with LOX IMVI melanoma, in the experiment on OVCAR-3 ovarian, in the experiment on RXF 393 renal, with SN12C renal and in the experiment with SW-620 colon was more than 100 µM each time. For the same compound, the TGI with UACC-62 melanoma is more than 100 µM.

Consider `CN1CCCC2[C@@H]3CCC4c5nonc5CC[C@]4(C)C3CC[C@@]21C` (stereo not given in full), for which the TGI in the experiment with 786-0 renal, in the experiment on NCI-H522 lung, in the experiment on RXF 393 renal, with SF-539 CNS, with SN12C renal and with SW-620 colon was more than 100 µM throughout. The same compound gave a TGI in the experiment on UACC-62 melanoma of more than 100 µM.

Consider `c1ccc2c(c1)[nH]c1c2nc2ccccn21`, for which the TGI is more than 100 µM in the experiment with 786-0 renal; more than 100 µM in the experiment on HL-60(TB) leukemia; more than 100 µM in the experiment on NCI-H522 lung; 59.8 µM and > 100 µM in the experiment with OVCAR-3 ovarian; more than 100 µM in the experiment with RXF 393 renal; more than 100 µM in the experiment with SF-539 CNS. The TGI in the experiment on SN12C renal, in the experiment with SW-620 colon and in the experiment on UACC-62 melanoma was more than 100 µM each time. In the experiment on HL-60(TB) leukemia, the GI50 is 42.8 µM and > 100 µM.

For the origin of these results see PubChem BioAssay (NCI).
